Reference: US20100272680A1, “Piperidinyl Cyclic Amido Antiviral Agents” (priority 2009, published 2010)

Assays:
HCV Genotype 1A Replicon = test: Replicon assay, genotype 1a subgenomic replicon, luciferase readout; assay type: cell-based; conditions: Hepatitis C virus, 48 h, Table 3; luciferase activity after 48 hours
Procedure: (§1) Compounds were assayed for activity against HCV using the genotype 1a and 1b subgenomic replicon model systems. Stable cell lines bearing the genotype 1a and 1b replicons were used for screening of compounds. Both replicons are bicistonic and contain the firefly luciferase gene. The ET cell line is stably transfected with RNA transcripts harboring a I389luc-ubi-neo/NS3-3′/ET replicon with firefly luciferase-ubiquitin-neomycin phosphotransferase fusion protein and EMCV-IRES driven NS3-5B polyprotein containing the cell culture adaptive mutations (E1202G; T12801; K1846T) (Krieger at al, 2001 and unpublished). The genotype 1a replicon is a stable cell line licensed from Apath LLC, modified to contain the firefly luciferase gene. The cells were grown in DMEM, supplemented with 10% fetal calf serum, 2 mM Glutamine, Penicillin (100 IU/mL)/Streptomycin (100 μg/mL), 1× nonessential amino acids, and 250-500 μg/mL G418 (“Geneticin”). They were all available through Life Technologies (Bethesda, Md.). The cells were plated at 0.5×10^4 cells/well in 384 well plates containing compounds. The final concentration of compounds ranged between 0.03 μM to 50 μm and the final DMSO concentration of 0.5-1%.
(§2) Luciferase activity was measured 48 hours later by adding a Steady glo (Promega, Madison, Wis.). Percent inhibition of replication data was plotted relative to no compound control. Under the same condition, cytotoxicity of the compounds was determined using cell titer glo (Promega, Madison, Wis). IC50s were determined from a 10 point dose response curve using 3-4-fold serial dilution for each compound, which spans a concentration range >1000 fold. BioAssay determines the level of inhibition for each compound by normalizing cross-talk corrected plate values against the negative […] controls to determine Percent Inhibition:
(§3) These normalized values are exported to EC50 where they are plotted against the molar compound concentrations using the standard four parameter logistic equation: […]
(§4) Some EC50 measurements were repeated a second time and for both 1A and 1B genotypes after those reported in Table 2 for compounds 101-108 and the repeated data was reported in Table 3.

HCV Genotype 1B Replicon = test: Replicon assay, genotype 1b subgenomic replicon (ET cell line), luciferase readout; assay type: cell-based; conditions: Hepatitis C virus, 48 h, Table 3; luciferase activity after 48 hours
Procedure: as §1, §2, §3, §4

SMILES: O=C(c1nc2c(C(F)(F)F)cc(Br)cn2c1Cl)N1CC[C@H](N2CCCC2=O)[C@H](O)C1 (racemic) [Compound 229, (±) cis-1-(1-{[6-bromo-3-chloro-8-(trifluoromethyl)imidazo[1,2-a]pyridin-2-yl]carbonyl}-3-hydroxy-4-piperidinyl)-2-pyrrolidinone]
- EC50 (HCV Genotype 1A Replicon): 960 nM
- EC50 (HCV Genotype 1B Replicon): 350 nM

SMILES: CCCCc1cc(C(F)(F)F)c2nc(C(=O)N3CCC(N4CCOC4=O)CC3)c(Cl)n2c1 [Compound 131]
- EC50 (HCV Genotype 1A Replicon): 10 nM
- EC50 (HCV Genotype 1B Replicon): 700 nM

SMILES: O=C(c1nc2c(C(F)(F)F)cc(C3CC3)cn2c1Cl)N1CCC(N2CC(O)CC2=O)CC1 (centres unmarked) [Compound 163, 1-(1-{[3-chloro-6-cyclopropyl-8-(trifluoromethyl)imidazo[1,2-a]pyridin-2-yl]carbonyl}-4-piperidinyl)-4-hydroxy-2-pyrrolidinone]
- EC50 (HCV Genotype 1A Replicon): 380 nM
- EC50 (HCV Genotype 1B Replicon): 80 nM

SMILES: CC(C)c1cc(C(F)(F)F)c2nc(C(=O)N3CCC(N4CCOC4=O)CC3)cn2c1 [Compound 196, 3-(1-{[6-(1-methylethyl)-8-(trifluoromethyl)imidazo[1,2-a]pyridin-2-yl]carbonyl}-4-piperidinyl)-1,3-oxazolidin-2-one]
- EC50 (HCV Genotype 1A Replicon): 1190 nM
- EC50 (HCV Genotype 1B Replicon): 960 nM

SMILES: CC1(C)CC(N2CCOC2=O)CCN1C(=O)c1nc2c(C(F)(F)F)cc(-c3ccoc3)cn2c1Cl (centres unmarked) [Compound 211, 3-(1-{[3-chloro-6-(3-furanyl)-8-(trifluoromethyl)imidazo[1,2-a]pyridin-2-yl]carbonyl}-2,2-dimethyl-4-piperidinyl)-1,3-oxazolidin-2-one]
- EC50 (HCV Genotype 1A Replicon): 580 nM
- EC50 (HCV Genotype 1B Replicon): 340 nM

SMILES: CC(O)c1cc(C(F)(F)F)c2nc(C(=O)N3CCC(N4CCOC4=O)CC3)c(Cl)n2c1 (centres unmarked) [Compound 155, 3-(1-{[3-chloro-6-(1-hydroxyethyl)-8-(trifluoromethyl)imidazo[1,2-a]pyridin-2-yl]carbonyl}-4-piperidinyl)-1,3-oxazolidin-2-one]
- EC50 (HCV Genotype 1A Replicon): 630 nM
- EC50 (HCV Genotype 1B Replicon): 1080 nM

SMILES: CC(C)Oc1cc(C(F)(F)F)c2nc(C(=O)N3CCC(N4CCOC4=O)CC3)c(Cl)n2c1 [Compound 138, 3-(1-{[3-chloro-6-[(1-methylethyl)oxy]-8-(trifluoromethyl)imidazo[1,2-a]pyridin-2-yl]carbonyl}-4-piperidinyl)-1,3-oxazolidin-2-one]
- EC50 (HCV Genotype 1A Replicon): 280 nM
- EC50 (HCV Genotype 1B Replicon): 420 nM

SMILES: Nc1cc(C(F)(F)F)c2nc(C(=O)N3CCC(N4CCOC4=O)CC3)c(Cl)n2c1 [Compound 187, 3-(1-{[6-amino-3-chloro-8-(trifluoromethyl)imidazo[1,2-a]pyridin-2-yl]carbonyl}-4-piperidinyl)-1,3-oxazolidin-2-one]
- EC50 (HCV Genotype 1A Replicon): 4680 nM
- EC50 (HCV Genotype 1B Replicon): 1620 nM

SMILES: O=C(c1nc2c(C(F)(F)F)cc(C3CC3)cn2c1Cl)N1CC[C@@H](N2CCOC2=O)[C@H](O)C1 (single isomer, unassigned; enantiomer 1) [Compound 220, 3-((trans)-1-{[3-chloro-6-cyclopropyl-8-(trifluoromethyl)imidazo[1,2-a]pyridin-2-yl]carbonyl}-3-hydroxy-4-piperidinyl)-1,3-oxazolidin-2-one (Enantiomer 1)]
- EC50 (HCV Genotype 1A Replicon): 20 nM
- EC50 (HCV Genotype 1B Replicon): 30 nM

SMILES: O=C(c1nc2c(C(F)(F)F)cc(-c3ncc[nH]3)cn2c1Cl)N1CCC(N2CCOC2=O)CC1 [Compound 149, 3-(1-{[3-chloro-6-(1H-imidazol-2-yl)-8-(trifluoromethyl)imidazo[1,2-a]pyridin-2-yl]carbonyl}-4-piperidinyl)-1,3-oxazolidin-2-one]
- EC50 (HCV Genotype 1A Replicon): 2250 nM
- EC50 (HCV Genotype 1B Replicon): 80 nM

SMILES: O=C(c1nc2c(C(F)(F)F)cc(-c3ccoc3)cn2c1Br)N1CCC(N2CCOC2=O)CC1 [Compound 158, 3-(1-{[3-bromo-6-(3-furanyl)-8-(trifluoromethyl)imidazo[1,2-a]pyridin-2-yl]carbonyl}-4-piperidinyl)-1,3-oxazolidin-2-one]
- EC50 (HCV Genotype 1A Replicon): 10 nM
- EC50 (HCV Genotype 1B Replicon): 40 nM

SMILES: O=C(c1nc2c(C(F)(F)F)cc(C(F)F)cn2c1Cl)N1CCC(N2CCOC2=O)CC1 [Compound 157, 3-(1-{[3-chloro-6-(difluoromethyl)-8-(trifluoromethyl)imidazo[1,2-a]pyridin-2-yl]carbonyl}-4-piperidinyl)-1,3-oxazolidin-2-one]
- EC50 (HCV Genotype 1A Replicon): 20 nM
- EC50 (HCV Genotype 1B Replicon): 150 nM

SMILES: CC1(N2CCOC2=O)CCN(C(=O)c2nc3c(C(F)(F)F)cc(-c4ccoc4)cn3c2Cl)CC1 [Compound 183, 3-(1-{[3-chloro-6-(3-furanyl)-8-(trifluoromethyl)imidazo[1,2-a]pyridin-2-yl]carbonyl}-4-methyl-4-piperidinyl)-1,3-oxazolidin-2-one]
- EC50 (HCV Genotype 1A Replicon): ≥ 5010 nM
- EC50 (HCV Genotype 1B Replicon): 4470 nM

SMILES: C[C@@H]1CN(C2CCN(C(=O)c3nc4c(C(F)(F)F)cc(-c5ccoc5)cn4c3Cl)CC2)C(=O)O1 [Compound 185, (5R)-3-(1-{[3-chloro-6-(3-furanyl)-8-(trifluoromethyl)imidazo[1,2-a]pyridin-2-yl]carbonyl}-4-piperidinyl)-5-methyl-1,3-oxazolidin-2-one]
- EC50 (HCV Genotype 1A Replicon): 1480 nM
- EC50 (HCV Genotype 1B Replicon): 1550 nM

SMILES: C[C@H]1COC(=O)N1C1CCN(C(=O)c2nc3c(C(F)(F)F)cc(-c4ccoc4)cn3c2Cl)CC1 [Compound 180, (4S)-3-(1-{[3-chloro-6-(3-furanyl)-8-(trifluoromethyl)imidazo[1,2-a]pyridin-2-yl]carbonyl}-4-piperidinyl)-4-methyl-1,3-oxazolidin-2-one]
- EC50 (HCV Genotype 1A Replicon): 1620 nM
- EC50 (HCV Genotype 1B Replicon): 2850 nM

SMILES: C[C@@H]1COC(=O)N1C1CCN(C(=O)c2nc3c(C(F)(F)F)cc(-c4ccoc4)cn3c2Cl)CC1 [Compound 182, (4R)-3-(1-{[3-chloro-6-(3-furanyl)-8-(trifluoromethyl)imidazo[1,2-a]pyridin-2-yl]carbonyl}-4-piperidinyl)-4-methyl-1,3-oxazolidin-2-one]
- EC50 (HCV Genotype 1A Replicon): 130 nM
- EC50 (HCV Genotype 1B Replicon): 660 nM

SMILES: C[C@@H]1OC(=O)N(C2CCN(C(=O)c3nc4c(C(F)(F)F)cc(C5CC5)cn4c3Cl)CC2)C1=O [Compound 189, (5S)-3-(1-{[3-chloro-6-cyclopropyl-8-(trifluoromethyl)imidazo[1,2-a]pyridin-2-yl]carbonyl}-4-piperidinyl)-5-methyl-1,3-oxazolidine-2,4-dione]
- EC50 (HCV Genotype 1A Replicon): 220 nM
- EC50 (HCV Genotype 1B Replicon): 30 nM

SMILES: O=C(c1nc2c(C(F)(F)F)cc(-c3ccc[nH]3)cn2c1Cl)N1CCC(N2CCOC2=O)CC1 [Compound 150, 3-(1-{[3-chloro-6-(1H-pyrrol-2-yl)-8-(trifluoromethyl)imidazo[1,2-a]pyridin-2-yl]carbonyl}-4-piperidinyl)-1,3-oxazolidin-2-one]
- EC50 (HCV Genotype 1A Replicon): 230 nM
- EC50 (HCV Genotype 1B Replicon): 450 nM

SMILES: Cn1cc(-c2cc(C(F)(F)F)c3nc(C(=O)N4CCC(N5CCOC5=O)CC4)c(Cl)n3c2)cn1 [Compound 124]
- EC50 (HCV Genotype 1A Replicon): 30 nM
- EC50 (HCV Genotype 1B Replicon): 3470 nM

SMILES: CC1(C)COC(=O)N1C1CCN(C(=O)c2nc3c(C(F)(F)F)cc(-c4ccoc4)cn3c2Cl)CC1 [Compound 176, 3-(1-{[3-chloro-6-(3-furanyl)-8-(trifluoromethyl)imidazo[1,2-a]pyridin-2-yl]carbonyl}-4-piperidinyl)-4,4-dimethyl-1,3-oxazolidin-2-one]
- EC50 (HCV Genotype 1A Replicon): ≥ 50100 nM
- EC50 (HCV Genotype 1B Replicon): ≥ 50100 nM

SMILES: O=C(c1nc2c(C(F)(F)F)cc(C3CCOC3)cn2c1Cl)N1CCC(N2CCOC2=O)CC1 (centres unmarked) [Compound 137, 3-(1-{[3-chloro-6-(tetrahydro-3-furanyl)-8-(trifluoromethyl)imidazo[1,2-a]pyridin-2-yl]carbonyl}-4-piperidinyl)-1,3-oxazolidin-2-one]
- EC50 (HCV Genotype 1A Replicon): 310 nM
- EC50 (HCV Genotype 1B Replicon): 1270 nM

SMILES: Cc1c(C(=O)N2CCC(N3CCOC3=O)CC2)nc2c(C(F)(F)F)cc(-c3ccoc3)cn12 [Compound 164, 3-(1-{[6-(3-furanyl)-3-methyl-8-(trifluoromethyl)imidazo[1,2-a]pyridin-2-yl]carbonyl}-4-piperidinyl)-1,3-oxazolidin-2-one]
- EC50 (HCV Genotype 1A Replicon): 30 nM
- EC50 (HCV Genotype 1B Replicon): 100 nM

SMILES: Cc1cc(C(F)(F)F)c2nc(C(=O)N3CCC(N4CCOC4=O)CC3)c(Cl)n2c1 [Compound 151, 3-(1-{[3-chloro-6-methyl-8-(trifluoromethyl)imidazo[1,2-a]pyridin-2-yl]carbonyl}-4-piperidinyl)-1,3-oxazolidin-2-one]
- EC50 (HCV Genotype 1A Replicon): 650 nM
- EC50 (HCV Genotype 1B Replicon): 500 nM

SMILES: O=C(c1nc2c(C(F)(F)F)cc(-c3ccoc3)cn2c1CO)N1CCC(N2CCOC2=O)CC1 [Compound 166, 3-(1-{[6-(3-furanyl)-3-(hydroxymethyl)-8-(trifluoromethyl)imidazo[1,2-a]pyridin-2-yl]carbonyl}-4-piperidinyl)-1,3-oxazolidin-2-one]
- EC50 (HCV Genotype 1A Replicon): 920 nM
- EC50 (HCV Genotype 1B Replicon): 2000 nM

SMILES: N#Cc1cc(C(F)(F)F)c2nc(C(=O)N3CCC(N4CCOC4=O)CC3)c(Cl)n2c1 [Compound 239, 3-chloro-2-{[4-(2-oxo-1,3-oxazolidin-3-yl)-1-piperidinyl]carbonyl}-8-(trifluoromethyl)imidazo[1,2-a]pyridine-6-carbonitrile]
- EC50 (HCV Genotype 1A Replicon): 800 nM
- EC50 (HCV Genotype 1B Replicon): 7940 nM
